Measurements as given in US20090117083A1, “IMMUNOMODULATORY ALKALOIDS” (M N L PHARMA LIMITED, priority 2004, published 2009).

Tests used:
α-L-fucosidase = target: T1, α-L-fucosidase (Bos taurus, UniProt Q2KIM0); assay: Glycosidase inhibition: α-L-fucosidase; assay type: biochemical, Bovine; conditions: 1 mg/ml; read-out: % inhibition, fucosidase
T1 construct: purchased Sigma
T1 sequence (Q2KIM0 23-468): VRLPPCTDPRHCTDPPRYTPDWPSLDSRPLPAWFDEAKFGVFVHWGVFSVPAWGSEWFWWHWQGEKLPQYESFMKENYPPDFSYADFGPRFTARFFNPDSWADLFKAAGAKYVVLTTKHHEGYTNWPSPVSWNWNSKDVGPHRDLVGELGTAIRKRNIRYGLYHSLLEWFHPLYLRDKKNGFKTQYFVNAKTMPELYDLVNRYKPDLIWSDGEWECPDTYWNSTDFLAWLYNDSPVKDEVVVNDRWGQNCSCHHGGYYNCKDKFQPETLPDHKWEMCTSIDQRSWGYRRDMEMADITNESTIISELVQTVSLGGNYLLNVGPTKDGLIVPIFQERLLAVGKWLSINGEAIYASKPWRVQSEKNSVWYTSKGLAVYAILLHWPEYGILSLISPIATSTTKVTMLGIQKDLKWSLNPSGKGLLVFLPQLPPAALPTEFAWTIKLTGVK
How it was run: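 Enzymes assayed at 20 °C in McIlvaine citrate/phosphate buffer at each enzyme's optimum pH with p-nitrophenyl substrate at 3.57 mM final. Reactions stopped with 0.4M glycine pH 10.4 within the exponential phase; endpoint absorbance at 405 nm against water blanks.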

B16G/F10 melanoma cells = assay: B16/F10 melanoma lung colonies in mice; assay type: in vivo, C57BL/6 mice; conditions: for Colony Count: Day 21, mean ± s.e.m.; for % Reduction: versus vehicle
Description: There were 5 treatment groups in the study, with 6 mice arbitrarily allocated to each group. The treatment groups were as follows:
The dose volume was the daily intake for all animals. Test substances were administered to mice in Groups 2, 3, 4 and 5, as solutions in sterile water for 41 h 32 min prior to tumour cell injection (Day 0 is the day of tumour cell injection).
Mice were injected intravenously, via a tail vein, with 0.1 ml of a suspension of B16G/F10 melanoma cells (approximately 1×10^5 cells/mouse) on Day 0.
All dosing solutions were prepared on the first day of dosing (Day −2) and were kept at room temperature.
Mice: Female C57BL/6 mice were supplied and delivered by Charles River UK Limited. The animals were approximately 6-8 weeks of age on arrival. The animals were acclimatized for 29 days prior to the start of the study, and the body weights at the start of dosing were in the range 18-23 g. During the study, the animals were housed in groups of up to 6 in pediatric filter-topped cages with sawdust bedding (autoclaved for sterility). The room and cages were cleaned at regular intervals each week to maintain hygiene. The mice were fed an expanded rodent diet of RM1(E) SQC (batch number 3822; Special Diets Services, Witham, UK) ad libitum and allowed access to sterilized water (N.V. Nutricia, Zoetermeer, The Netherlands). For Groups 2, 3, 4 and 5, the drinking water also contained the appropriate level of test substance for the duration of the dosing period. […] During the acclimatization and study period the temperature range in the rooms was 18-22° C. and the humidity range was 44-79%.
Tumour challenge: B18F10 murine tumour cells (Shrayer D, Bogaars H. Hearing V. J. Maizel A. & Wanebo H. Further characterization of a clinically relevant model of melanoma metastasis and an effective vaccine. Cancer Immunology, Immunotherapy 1995: 40; 277-282) were harvested from sub-confluent cultures growing in vitro, using minimum trypsination. They were washed in sterile phosphate buffered saline (PBS) and the number of viable cells determined. Cells were resuspended in sterile PBS at a concentration of […]. The mice were intravenously injected, via a tail vein, with 0.1 ml of cell suspension (i.e. approximately 1×10^5 cells/mouse) on Day 0. The mice were examined daily for signs of laboured breathing or distress due to extensive metastatic disease. Mice were exposed to the appropriate test substance for 41 h 32 min prior to tumour cell injection (from Day −2 to Day 0). Following tumour cell implant, the test substances were removed, and animals in all groups received drinking water alone for the remainder of the study.
Sampling and analysis: The animals were terminated on Day 21 (21 days after injection of the tumour cells). Blood samples were taken from 3 mice from each group on the day of termination. Animals were anaesthetized with carbon dioxide and blood samples of maximal volume taken by cardiac puncture and collected in plain tubes. Samples were left to clot at room temperature for a minimum of 1 h prior to serum removal, Serum samples were stored at approximately −70° C. prior to analysis. Immediately after performing the bleeds, the spleens were removed from the 3 selected mice. The spleens from these mice were pooled in a petri dish with approximately 3-5 ml of RPMI 1640 tissue culture medium (batch number 3092202; Invitrogen, Paisley, UK) containing 0.52% penicillin/streptomycin (Pen/Strep; batch number 44K2412; Sigma Aldrich, Poole, UK) prior to splenocyte isolation. The spleens from each group were placed in a glass homogeniser with an additional 10-15 ml of medium and homogenised until opaque. The suspension was then placed in a 50 ml centrifuge tube. On occasions when there was significant cell debris, this was allowed to settle before removing the suspension and placing in a fresh tube. The homogenate was then centrifuged at approximately 200×‘g’ for 5 min at approximately 4° C.

OC[C@@H]1[C@@H](O)[C@H](O)[C@H]2[C@H](O)[C@@H](O)CN21 [casuarine (8)]
inhibition at 1000 µg/mL (α-L-fucosidase): -1%
Colony Count (B16G/F10 melanoma cells; 0.03 μg/ml in drinking water before tumour cell injection): 17.00 ± 6.97
% Reduction (B16G/F10 melanoma cells; 0.03 μg/ml in drinking water): 76%
Colony Count (B16G/F10 melanoma cells; 3 μg/ml in drinking water before tumour cell injection): 35.40 ± 7.47
% Reduction (B16G/F10 melanoma cells; 3 μg/ml in drinking water): 49%
Colony Count (B16G/F10 melanoma cells; 0.3 mg/ml in drinking water before tumour cell injection): 38.50 ± 11.49
% Reduction (B16G/F10 melanoma cells; 0.3 mg/ml in drinking water): 45%
